Reference: patent publication US8168232B2, “Formulations and methods of using nitric oxide mimetics in cancer treatment” (priority 2000, dated 2012)
Where a name gives a salt, the structure may show the parent alone.

Columns and labels:
uPAR protein = assay: Western blot analysis of uPAR protein in MDA-MB-231 breast carcinoma cells; type: cell-based, human
Experimental: Following incubations, the cells were lysed using a buffer containing 40 mM HEPES pH 7.2, 100 mM NaCl, 20% glycerol, 0.1 mM EDTA pH 8.0, 0.2% Triton X-100, 1 mM DTT, and 2 mM PMSF. The lysates were then subjected to homogenization, DNA shearing (10 times with a 25⅝-gauge needle), boiling (5 minutes) and centrifugation (15 minutes, 14000 g). The supernatant was collected and stored at −80° C. until use. The samples were subjected to SDS-polyacrylamide gel electrophoresis (PAGE) and the resolved proteins were transferred to an Immobilon-P membrane using a wet transfer apparatus (Bio-Rad Laboratories, Mississauga, ON). The membranes were blocked overnight at 4° C. in a solution containing 1% PBS, and 0.01% Tween20 (PBS-T) as well as 5% casein. The blots were subsequently incubated for 1.5 hours with the monoclonal anti-uPAR antibody [MoAb 3937], followed by six 5 minute washes with PBS-T. The membranes were then incubated with a horseradish peroxidase labeled goat anti-mouse IgG secondary antibody for 1.5 hours. Following six additional 5 minute washes with PBS-T, the antigen was detected by enhanced chemiluminescence and the blots were exposed onto Dupont Reflection NEF film.
Following incubation, the cells were lysed using a buffer containing 40 mM HEPES pH 7.2, 100 mM NaCl, 20% glycerol, 0.1 mM EDTA pH 8.0, 0.2% Triton X-100, 1 mM dithiothreitol (DTT), and 2 mM phenylmethyl sulfonyl fluoride (PMSF). The lysates were then subjected to homogenization, DNA shearing (10 times with a 25⅝-gauge needle), boiling (5 minutes) and centrifugation (15 minutes at 14,000×g). The supernatant was collected and stored at −80° C. until use. The samples were subjected to SDS-polyacrylamide gel electrophoresis (PAGE) and the resolved proteins were transferred to an Immobilon-P membrane (Millipore Corp., Bedford, Mass.) using a wet transfer apparatus (BioRad Laboratories, Mississauga, ON). The membranes were blocked overnight at 4° C. in a solution containing 1% PBS, and 0.01% Tween 20 (PBS-T) as well as 5% dry milk powder. The blots were subsequently incubated for 1.5 hours with the monoclonal anti-uPAR (MoAb 3937; American Diagnostica Inc., Greenwich, Conn.), or a polyclonal soluble guanylate cyclase (sGC) antiserum (Cayman Chemical, Ann Arbor, Mich.) followed by six 5-minute washes with PBS-T. Subsequently, the uPAR membranes were incubated for 1 hour with a horseradish peroxidase labelled goat anti-mouse IgG secondary antibody (Bio-Rad, Hercules, Calif.) and the sGC membranes were incubated for 1 hour with a goat anti-rabbit IgG horseradish peroxidase conjugate (VECTOR Laboratories Inc., Burlingame, Calif.). Following six additional 5-minute washes with PBS-T, the antigen was detected by enhanced chemiluminescence (Amersham Canada Inc., Mississauga, ON) and the blots were exposed onto Dupont Reflection NEF film.

uPAR mRNA = assay: Northern blot analysis of uPAR mRNA in MDA-MB-231 breast carcinoma cells; type: cell-based, human
[1] = concentrations up to 500 μM; cited from earlier work
[2] = tested on: MDA-MB-231 breast carcinoma spheroids; assay: Clonogenic survival of MDA-MB-231 spheroids after doxorubicin; type: cell-based, human
Experimental: Following initial cell plating, spheroids formed for 24, 48, 72, 96 or 120 h. At each time point, spheroids were exposed to 200 μM of doxorubicin, then disaggregated and plated for assessment of colony formation (survival).
Spheroids were allowed to form for 72 h. DETA/NO was applied for the final 24 h of spheroid formation. Spheroids were then exposed to doxorubicin for 1 h, prior to disaggregation and plating for assessment of survival by clonogenic assay.
Using human MDA-MB-231 breast carcinoma cells in clonogenic assays, survival was determined following doxorubicin exposure and NO mimetic administration to both monolayer and spheroid cultures.

In the case of `COC(=O)[C@@]1(OC)C[C@H]2O[C@]1(C)n1c3ccccc3c3c4c(c5c6ccccc6n2c5c31)C(=O)N(C)C4` [KT5823], the “increase in uPAR protein expression” value (uPAR protein; KT5823 10 μM, 6 hours, 20% O2) is reported as 1.8 fold, the “effect on the effects of 8-Br-cGMP on uPAR expression” value (uPAR mRNA; KT5823 10 μM) is reported as “significantly blunted” and the “increase in uPAR mRNA expression” value (uPAR mRNA; KT5823 10 μM, 6 hours, 20% O2) is reported as 1.8 fold.
For sodium trioxodinitrate (II) monohydrate, the cell viability [1] is listed as “did not significantly affect cell viability”.
In the case of `CCN(CC)[N+]([O-])=NO` [diethylamine-bis(nitric oxide) adduct sodium salt], the cell viability [1] is listed as “did not significantly affect cell viability”.
For `NCCN(CCN)/[N+]([O-])=N/O` [DETA, Diethylenetriamine/nitric oxide adduct], the “attenuation of resistance to 200 μM doxorubicin associated with 3D culture” value [2] was 90% and the “survival of control (doxorubicin-untreated) cells” value ([2]; DETA 0.1 mM and 2 μM, GTN 0.1 nM and 1 μM) was “did not affect the survival”.
For `CCCN(CCCN)N(O)N=O` [3-(n-propylamino)propylamine bis(nitric oxide) adduct], the cell viability [1] is listed as “did not significantly affect cell viability”.
For `CC(C)N[N+]([O-])=N[O-].[Na+]` [isopropylamine-bis(nitric oxide) adduct sodium salt], the cell viability [1] is given as “did not significantly affect cell viability”.
For `CC(=O)N(O)CCCCCNC(=O)CCC(=O)N(O)CCCCCNC(=O)CCC(=O)N(O)CCCCCN.CS(=O)(=O)O` [DFO, Desferoxamine mesylate], the “increase in uPAR mRNA levels” value (uPAR mRNA; cells cultured in the presence of DFO) was 4 fold.
In the case of `O=c1onc2cnc3ccccc3n12` [ODQ, 1H-[1,2,4]Oxadiazolo-[4,3-a]Quinoxalin-1-One], the “effect on ability of GTN (10^−6 M) to abrogate hypoxic induction of uPAR, protein level” value (uPAR protein; ODQ 0.5 μM) is reported as “substantially prevented”, the “effect on ability of GTN (10^−6 M) to abrogate hypoxic induction of uPAR, mRNA level” value (uPAR mRNA; ODQ 0.5 μM) is reported as “substantially prevented” and the “increase in uPAR mRNA levels” value (uPAR mRNA; ODQ 0.5 μM, 24 hours, vs 20% O2 alone) is reported as 2.7 fold.
For `O=NN(O)S(=O)(=O)O` [N-nitrosohydroxylamine-N-sulfonate], the cell viability [1] is listed as “did not significantly affect cell viability”.
